Molecular target: PRMT5/MEP50 protein complex (Homo sapiens (Human), UniProt O14744)
Test: PRMT5 biochemical assay (3H-SAM methylation of H4(1-21) peptide, filter plate scintillation counting)
Conditions: PRMT5 enzyme inhibition; 10 nM PRMT5/MEP50 complex, 200 nM H4(1-21) peptide, 1 uM SAM, 25 minute incubation at room temperature
Experimental: Following dilution, 1 ul was added to an empty 96-well microtiter plate. PRMT5/MEP50 protein complex was combined with H4(1-21) peptide ([…]) in PRMT5 assay buffer (50 mM Tris pH 8.5, 50 mM NaCl, 5 mM MgCl2, 1 mM EDTA, 1 mM TCEP) and 44 ul was added to the microtiter plate containing compound. S-Adenosyl-L-methionine (SAM) was prepared by combining ^3H labelled SAM with unlabelled SAM in PRMT5 assay buffer such that the final SAM concentration was 10 uM and the specific activity was 0.2 uCi/ul. The reaction was initiated by adding 5 ul of SAM stock to the microtiter plate. The final reaction conditions were 10 nM PRMT5/MEP50 complex, 200 nM peptide and 1 uM SAM. Following a 25 minute incubation at room temperature, the reaction was stopped with the addition of 100 uL of 20% TCA. The 3H-peptide product was captured using a 96-well filter plate (MSIPN4B, Millipore) and washed 5 times with PBS buffer. Scintillation fluid (100 ul) was added to the dried filter plate and counted in a liquid scintillation counter. IC50 values were determined by fitting the data to the standard 4-parameter dose response equation using Pfizer proprietary software.
In the final construct PRMT5 ORF was under control of polyhedrin promoter (polH) while MEP50 ORF was under control of p10 promoter.
Viruses were generated using standard Bac-to-Bac viral generation protocols (Life Technologies) and amplified to high-titer passage two (P2) stocks. Protein over expression was conducted in exponentially growing Sf21 cells infected at 2×106 with P2 viral stock at MOI=1 of PRMT5-Mep50 dual construct virus and Mep50 construct virus at 1:1 ratio. The co-expression protocol was used to supplement additional Mep50 for FlagPRMT5-Mep50 heterodimer formation. Cells were harvested at 72 h post infection by centrifugation and frozen pellet was stored at −80° C.
FlagPRMT5-Mep50 complex was purified from cell lysate using Flag affinity chromatography. Cell were lyzed in 50 mM Tris 7.5, 200 mM NaCl, 10% glycerol, 0.25 mM TCEP supplemented with EDTA-free protease inhibitor cocktail (Roche). 1.5 ml of lysis buffer was added per 1 g of frozen pellet. The clarified lysate was obtained by centrifugation of cell lysate at 10,000 g for 1 h at 4 C. 5 ml of Anti-FLAG M2 Agarose (Sigma) […] was added to the clarified lysate to isolate FlagPRMT5-Mep50. Following batch binding for 3 h at 4 C, Flag resin bound to FlagPRMT5-Mep50 washed with 20 column volumes (CV) of 50 mM Tris 7.5, 200 mM NaCl, 10% glycerol, 0.25 mM TCEP followed by elution of FlagPRMT5-Mep50 complex using 3 CV of 50 mM Tris 7.5, 200 mM NaCl, 10% glycerol, 0.25 mM TCEP supplemented with 200 ug/ml of FLAG Peptide ([…]). […] Peak fractions containing FlagPRMT5-Mep50 complex were concentrated to 1.6 mg/ml, flash frozen in small aliquots using liquid nitrogen and stored at −80° C.

Chain of PRMT5/MEP50 protein complex (O14744 other isoform, or with tags, fused parts or gaps): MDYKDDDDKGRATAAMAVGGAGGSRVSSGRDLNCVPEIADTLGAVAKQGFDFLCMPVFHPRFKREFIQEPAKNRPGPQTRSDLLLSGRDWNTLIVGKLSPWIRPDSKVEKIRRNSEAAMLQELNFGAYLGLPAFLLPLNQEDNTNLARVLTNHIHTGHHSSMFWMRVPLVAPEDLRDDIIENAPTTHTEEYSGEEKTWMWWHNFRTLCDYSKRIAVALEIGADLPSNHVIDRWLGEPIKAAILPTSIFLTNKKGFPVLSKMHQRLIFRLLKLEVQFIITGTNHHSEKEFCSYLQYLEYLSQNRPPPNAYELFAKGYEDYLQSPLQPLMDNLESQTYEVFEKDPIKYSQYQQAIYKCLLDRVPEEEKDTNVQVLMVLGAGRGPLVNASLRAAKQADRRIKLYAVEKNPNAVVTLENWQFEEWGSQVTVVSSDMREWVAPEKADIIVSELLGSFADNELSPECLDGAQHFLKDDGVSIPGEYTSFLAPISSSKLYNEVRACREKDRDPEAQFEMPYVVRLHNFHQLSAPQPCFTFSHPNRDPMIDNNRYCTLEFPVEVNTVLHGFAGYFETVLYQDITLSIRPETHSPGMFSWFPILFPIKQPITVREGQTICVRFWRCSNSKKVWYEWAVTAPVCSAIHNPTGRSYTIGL
Chain of PRMT5/MEP50 protein complex (Q9BQA1 whole entry partner): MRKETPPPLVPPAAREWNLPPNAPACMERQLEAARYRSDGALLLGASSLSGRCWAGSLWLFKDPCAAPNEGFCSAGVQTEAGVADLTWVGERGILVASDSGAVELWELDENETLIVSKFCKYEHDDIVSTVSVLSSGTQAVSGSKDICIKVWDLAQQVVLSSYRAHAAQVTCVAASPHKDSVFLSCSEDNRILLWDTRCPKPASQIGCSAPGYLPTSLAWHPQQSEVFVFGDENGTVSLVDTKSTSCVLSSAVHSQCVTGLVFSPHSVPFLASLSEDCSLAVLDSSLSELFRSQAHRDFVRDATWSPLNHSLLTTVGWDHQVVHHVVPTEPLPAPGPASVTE

| SMILES | IC50 [nM] |
| --- | --- |
| Cc1ncnc2c1ccn2[C@@H]1O[C@H](C(O)CS(=O)(=O)c2ccccc2)[C@@H](O)[C@H]1O (stereo in doubt) [Example 24, (2S,3S,4R,5R)-2-((R)-1-hydroxy-2-(phenylsulfonyl)ethyl)-5-(4-methyl-7H-pyrrolo[2,3-d]pyrimidin-7-yl)tetrahydrofuran-3,4-diol] | 30800 |
| CC[C@@H](O)[C@H]1O[C@@H](n2cnc3c(N)ncnc32)[C@H](O)[C@@H]1O [Example 3, (2R,3R,4S,5R)-2-(6-amino-9H-purin-9-yl)-5-((R)-1-hydroxypropyl)tetrahydrofuran-3,4-diol] | 333 |
| CC[C@H](O)[C@H]1O[C@@H](n2cnc3c(N)ncnc32)[C@H](O)[C@@H]1O [Example 4, (2R,3R,4S,5R)-2-(6-amino-9H-purin-9-yl)-5-((S)-1-hydroxypropyl)tetrahydrofuran-3,4-diol] | 44100 |
| CCC[C@@H](O)[C@H]1O[C@@H](n2cnc3c(N)ncnc32)[C@H](O)[C@@H]1O [Example 5, (2R,3R,4S,5R)-2-(6-amino-9H-purin-9-yl)-5-((R)-1-hydroxybutyl)tetrahydrofuran-3,4-diol] | 159 |
| CCC[C@H](O)[C@H]1O[C@@H](n2cnc3c(N)ncnc32)[C@H](O)[C@@H]1O [Example 6, (2R,3R,4S,5R)-2-(6-amino-9H-purin-9-yl)-5-((S)-1-hydroxybutyl)tetrahydrofuran-3,4-diol] | 21100 |
| CC(C)C[C@@H](O)[C@H]1O[C@@H](n2cnc3c(N)ncnc32)[C@H](O)[C@@H]1O [Example 7, (2R,3R,4S,5R)-2-(6-amino-9H-purin-9-yl)-5-((R)-1-hydroxy-3-methylbutyl)tetrahydrofuran-3,4-diol] | 1830 |
| CC(C)C[C@H](O)[C@H]1O[C@@H](n2cnc3c(N)ncnc32)[C@H](O)[C@@H]1O [Example 8, (2R,3R,4S,5R)-2-(6-amino-9H-purin-9-yl)-5-((S)-1-hydroxy-3-methylbutyl)tetrahydrofuran-3,4-diol] | 17900 |
| Cc1ncnc2c1ccn2[C@@H]1O[C@H]([C@H](O)c2ccnc(N(C)C)c2)[C@@H](O)[C@H]1O [Example 14, (2R,3S,4R,5R)-2-((R)-(2-(dimethylamino)pyridin-4-yl)(hydroxy)methyl)-5-(4-methyl-7H-pyrrolo[2,3-d]pyrimidin-7-yl)tetrahydrofuran-3,4-diol] | 17 |
| Cc1ncnc2c1ccn2[C@@H]1O[C@H]([C@H](O)c2ccc3cnn(C)c3c2)[C@@H](O)[C@H]1O [Example 15, (2R,3S,4R,5R)-2-((R)-hydroxy(1-methyl-1H-indazol-6-yl)methyl)-5-(4-methyl-7H-pyrrolo[2,3-d]pyrimidin-7-yl)tetrahydrofuran-3,4-diol] | 39 |
| Cc1ncnc2c1ccn2[C@@H]1O[C@H]([C@H](O)c2cccc(C(F)(F)F)c2)[C@@H](O)[C@H]1O [Example 16, (2R,3S,4R,5R)-2-((R)-hydroxy(3-(trifluoromethyl)phenyl)methyl)-5-(4-methyl-7H-pyrrolo[2,3-d]pyrimidin-7-yl)tetrahydrofuran-3,4-diol] | 23 |
| Cc1ncnc2c1ccn2[C@@H]1OC([C@H](O)c2cc(F)cc(C(F)(F)F)c2)[C@@H](O)[C@H]1O (stereo partly drawn) [Example 17, (3S,4R,5R)-2-((3-fluoro-5-(trifluoromethyl)phenyl)(hydroxy)methyl)-5-(4-methyl-7H-pyrrolo[2,3-d]pyrimidin-7-yl)tetrahydrofuran-3,4-diol] | 2270 |
| Cc1ncnc2c1ccn2[C@@H]1O[C@H]([C@H](O)c2ccc(F)c(C(F)(F)F)c2)[C@@H](O)[C@H]1O [Example 18, (2R,3S,4R,5R)-2-((R)-(4-fluoro-3-(trifluoromethyl)phenyl)(hydroxy)methyl)-5-(4-methyl-7H-pyrrolo[2,3-d]pyrimidin-7-yl)tetrahydrofuran-3,4-diol] | 4 |
| Cc1ncnc2c1ccn2[C@@H]1O[C@H]([C@H](O)c2cccc(S(C)(=O)=O)c2)[C@@H](O)[C@H]1O [Example 19, (2R,3S,4R,5R)-2-((R)-hydroxy(3-(methylsulfonyl)phenyl)methyl)-5-(4-methyl-7H-pyrrolo[2,3-d]pyrimidin-7-yl)tetrahydrofuran-3,4-diol] | 65 |
| Cc1ncnc2c1ccn2[C@@H]1O[C@H]([C@H](O)c2ccc(S(C)(=O)=O)cc2)[C@@H](O)[C@H]1O [Example 20, (2R,3S,4R,5R)-2-((R)-hydroxy(4-(methylsulfonyl)phenyl)methyl)-5-(4-methyl-7H-pyrrolo[2,3-d]pyrimidin-7-yl)tetrahydrofuran-3,4-diol] | 54 |
| Cc1ncnc2c1ccn2[C@@H]1O[C@H]([C@H](O)c2ccc3occ(C(F)F)c3c2)[C@@H](O)[C@H]1O [Example 21, (2R,3S,4R,5R)-2-((R)-(3-(difluoromethyl)benzofuran-5-yl)(hydroxy)methyl)-5-(4-methyl-7H-pyrrolo[2,3-d]pyrimidin-7-yl)tetrahydrofuran-3,4-diol] | 33 |
| Cc1ncnc2c1ccn2[C@@H]1O[C@H]([C@H](O)c2ccc3ncn(C(F)F)c3c2)[C@@H](O)[C@H]1O [Example 22, (2R,3S,4R,5R)-2-((R)-(1-(difluoromethyl)-1H-benzo[d]imidazol-6-yl)(hydroxy)methyl)-5-(4-methyl-7H-pyrrolo[2,3-d]pyrimidin-7-yl)tetrahydrofuran-3,4-diol] | 108 |
| Cc1ncnc2c1ccn2[C@@H]1O[C@H]([C@H](O)c2ccc3c(c2)ncn3C(F)F)[C@@H](O)[C@H]1O [Example 23, (2R,3S,4R,5R)-2-((R)-(1-(difluoromethyl)-1H-benzo[d]imidazol-5-yl)(hydroxy)methyl)-5-(4-methyl-7H-pyrrolo[2,3-d]pyrimidin-7-yl)tetrahydrofuran-3,4-diol] | 793 |
| Cc1ncnc2c1ccn2[C@@H]1O[C@H]([C@H](O)Cc2ccccc2)[C@@H](O)[C@H]1O [Example 28, (2R,3S,4R,5R)-2-((R)-1-hydroxy-2-phenylethyl)-5-(4-methyl-7H-pyrrolo[2,3-d]pyrimidin-7-yl)tetrahydrofuran-3,4-diol] | 11200 |
| Cc1ncnc2c1ccn2[C@@H]1O[C@H]([C@@H](O)Cc2ccccc2)[C@@H](O)[C@H]1O [Example 29, (2R,3S,4R,5R)-2-((S)-1-hydroxy-2-phenylethyl)-5-(4-methyl-7H-pyrrolo[2,3-d]pyrimidin-7-yl)tetrahydrofuran-3,4-diol] | 200000 |
| Cc1ncnc2c1ccn2[C@@H]1O[C@H]([C@H](O)CCc2ccccc2)[C@@H](O)[C@H]1O [Example 30, (2R,3S,4R,5R)-2-((R)-1-hydroxy-3-phenylpropyl)-5-(4-methyl-7H-pyrrolo[2,3-d]pyrimidin-7-yl)tetrahydrofuran-3,4-diol] | 752 |
| Cc1ncnc2c1ccn2[C@@H]1O[C@H]([C@@H](O)CCc2ccccc2)[C@@H](O)[C@H]1O [Example 31, (2R,3S,4R,5R)-2-((S)-1-hydroxy-3-phenylpropyl)-5-(4-methyl-7H-pyrrolo[2,3-d]pyrimidin-7-yl)tetrahydrofuran-3,4-diol] | 61700 |
| Cc1ncnc2c1ccn2[C@@H]1O[C@H]([C@@H](O)c2cccc(F)c2)[C@@H](O)[C@H]1O [Example 35, (2R,3S,4R,5R)-2-((S)-(3-fluorophenyl)(hydroxy)methyl)-5-(4-methyl-7H-pyrrolo[2,3-d]pyrimidin-7-yl)tetrahydrofuran-3,4-diol] | 1740 |

Reference: patent US10428104B2, “Substituted nucleoside derivatives useful as anticancer agents” (Pfizer Inc., priority 2015, dated 2019)
